# From PubChem BioAssay (NCI)
#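 Growth conditions: 96-well plates. Treatment: test compound, 48 hours, 5 concentrations. Analysis: linear interpolation between bracketing concentrations; unreached endpoints set to highest concentration. Abbreviation: GI50, concentration required for 50% inhibition of growth. The concentration for full growth arrest is given as TGI.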
# What was measured:
# Experiment in all cases: growth of human tumour cells (NCI), 48 h
# [1] = system: A498 renal
# [2] = system: CAKI-1 renal
# [3] = system: HT29 colon
# [4] = system: MCF7 breast
# [5] = system: MOLT-4 leukemia
# [6] = system: NCI-H23 lung
# [7] = system: OVCAR-5 ovarian
# [8] = system: SF-295 CNS
# [9] = system: SK-MEL-28 melanoma
# [10] = system: KM12 colon
# [11] = system: SK-MEL-2 melanoma
Compound,GI50 [1],TGI [1],GI50 [2],TGI [2],GI50 [3],TGI [3],GI50 [4],TGI [4],GI50 [5],TGI [5],GI50 [6],TGI [6],GI50 [7],TGI [7],GI50 [8],TGI [8],GI50 [9],TGI [9],TGI [10],TGI [11]
CCCCCCCCCCCCCCCCCCOc1ccccc1CC(=O)OCC[N+]1(C)CCCCC1,2.53 µM,9.71 µM,1.74 µM,4.87 µM,1.61 µM,3.1 µM,2.07 µM,4.97 µM,1.73 µM,3.89 µM,1.8 µM,4.25 µM,2.32 µM,7.49 µM,2.93 µM,9.62 µM,2.51 µM,6.33 µM,–,–
O=C([O-])C[n+]1ccccc1,–,> 100 µM,–,> 100 µM,–,> 100 µM,–,> 100 µM,–,> 100 µM,–,> 100 µM,–,> 100 µM,–,> 100 µM,–,> 100 µM,> 100 µM,> 100 µM
CN(CCCCCl)P(=O)(OCc1ccc([N+](=O)[O-])o1)OC[C@H]1O[C@@H](n2cc(F)c(=O)[nH]c2=O)C[C@@H]1O (some centres undefined),–,0.0982 µM,–,–,–,> 100 µM,–,4.45 µM,–,> 46.1 µM,–,20.5 µM,–,> 100 µM,–,3.48 µM,–,> 61.3 µM,28.7 µM,36.1 µM
NN(CC(=O)O)CC(=O)O,–,> 100 µM,–,> 100 µM,–,> 100 µM,–,> 100 µM,–,> 100 µM,–,> 100 µM,–,> 100 µM,–,> 100 µM,–,> 100 µM,> 100 µM,> 100 µM
O=C(O)c1cc([N+](=O)[O-])cc2c(=O)c3cnccc3[nH]c12,–,> 100 µM,–,> 100 µM,–,> 100 µM,–,> 100 µM,–,> 100 µM,–,> 100 µM,–,> 100 µM,–,> 100 µM,–,> 100 µM,> 100 µM,> 100 µM
Nc1ncnc2nc[nH]c12,–,11.1 µM,58.9 µM,> 250 µM,–,> 250 µM,–,> 162 µM,15.8 µM,159 µM,–,> 250 µM,–,> 250 µM,–,> 250 µM,–,> 250 µM,> 158 µM,> 250 µM
Nc1ncnc2c1ncn2C=C=CCO,–,> 100 µM,–,> 100 µM,–,> 100 µM,–,> 100 µM,–,> 100 µM,–,> 100 µM,–,> 100 µM,–,> 100 µM,–,> 100 µM,> 100 µM,> 100 µM
CCOc1ccc(NC(=O)C(=O)CC(=O)c2sc(NNC(C)=O)nc2C)cc1,–,> 100 µM,–,> 100 µM,–,> 100 µM,–,–,–,> 100 µM,–,> 100 µM,–,> 100 µM,–,> 100 µM,–,> 100 µM,> 100 µM,> 100 µM
COc1cc2c(c(O)c1OC)-c1c(cc(OC)c(OC)c1OC)CC(C)C(C)C2 (centres undefined),–,> 100 µM,–,> 100 µM,–,> 100 µM,–,> 100 µM,–,43.4 µM,–,> 100 µM,–,> 100 µM,–,> 100 µM,–,> 100 µM,> 100 µM,> 100 µM
CC(C)=CCC/C(C)=C/CC/C(C)=C/CC/C(C)=C/C=C/C=C(\C)CC/C=C(\C)CC/C=C(\C)CCC=C(C)C,–,> 100 µM,–,32.1 µM,–,> 100 µM,–,> 100 µM,–,49 µM,–,> 100 µM,–,> 100 µM,–,> 100 µM,–,> 100 µM,63.3 µM,> 100 µM
CCOC(=O)C1=C(C)OC2(O)C=CC(O)=C3C(=O)N(c4ccccc4)C(=O)C312 (centres undefined),–,–,–,> 100 µM,–,76.7 µM,–,79.4 µM,–,> 100 µM,–,> 100 µM,–,> 100 µM,–,> 100 µM,–,49.7 µM,> 100 µM,68.4 µM
CN1CCOC(c2ccc(Cl)cc2)O1 (centres undefined),–,> 100 µM,–,> 100 µM,–,> 100 µM,–,> 100 µM,–,> 100 µM,–,> 100 µM,–,> 100 µM,–,> 100 µM,–,> 100 µM,> 100 µM,> 100 µM
C=C1c2ccccc2C(=O)c2c1c1c(C(=O)OC)c(O)ccc1n2Cc1ccccc1,–,2.27 µM,–,1.71 µM,–,0.823 µM,–,0.763 µM,–,0.971 µM,–,2.8 µM,–,2.44 µM,–,1.99 µM,–,1.07 µM,1.7 µM,2.39 µM
